Assay results reported in PubChem BioAssay AID2060893 (Molecular Pharmacology Branch, DTP, NCI, 2025).
Blank lines part the entries; values can stand above or below the compound they belong to.

System: K86415-001-R-J1-PDC complex spheroids, viability
Assay: Anticancer human tumor K86415-001-R-J1-PDC patient-derived lung adenocarcinoma cell line growth inhibition [RAS]
Details: for IC50: curve of first compound; for viability, T/C: stronger effect = lower value
How it was run: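 Agents were tested in combination matrices in half-log decrements from a top concentration at or near clinical Cmax (10 microM if undetermined). Targets were multi-cell spheroids of tumour lines plus HUVEC and MSC stromal cells.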

[1] = second compound 0.000949 µM, first compound 0.0316 µM
[2] = second compound 0.000949 µM, first compound 0.1 µM
[3] = second compound 0.000949 µM, first compound 0.316 µM
[4] = second compound 0.000949 µM, first compound 1 µM
[5] = second compound 0.003 µM, first compound 0.0316 µM
[6] = second compound 0.003 µM, first compound 0.1 µM
[7] = second compound 0.003 µM, first compound 0.316 µM
[8] = second compound 0.003 µM, first compound 1 µM
[9] = second compound 0.00949 µM, first compound 0.0316 µM
[10] = second compound 0.00949 µM, first compound 0.1 µM
[11] = second compound 0.00949 µM, first compound 0.316 µM
[12] = second compound 0.00949 µM, first compound 1 µM
[13] = second compound 0.03 µM, first compound 0.0316 µM
[14] = second compound 0.03 µM, first compound 0.1 µM
[15] = second compound 0.03 µM, first compound 0.316 µM
[16] = second compound 0.03 µM, first compound 1 µM
[17] = second compound 0.0949 µM, first compound 0.0316 µM
[18] = second compound 0.0949 µM, first compound 0.1 µM
[19] = second compound 0.0949 µM, first compound 0.316 µM
[20] = second compound 0.0949 µM, first compound 1 µM
[21] = second compound 0.3 µM, first compound 0.0316 µM
[22] = second compound 0.3 µM, first compound 0.1 µM
[23] = second compound 0.3 µM, first compound 0.316 µM
[24] = second compound 0.3 µM, first compound 1 µM
[25] = second compound 0.000949 µM, first compound 3.16 µM
[26] = second compound 0.000949 µM, first compound 10 µM
[27] = second compound 0.003 µM, first compound 3.16 µM
[28] = second compound 0.003 µM, first compound 10 µM
[29] = second compound 0.00949 µM, first compound 3.16 µM
[30] = second compound 0.00949 µM, first compound 10 µM
[31] = second compound 0.03 µM, first compound 3.16 µM
[32] = second compound 0.03 µM, first compound 10 µM
[33] = second compound 0.0949 µM, first compound 3.16 µM
[34] = second compound 0.0949 µM, first compound 10 µM
[35] = second compound 0.3 µM, first compound 3.16 µM
[36] = second compound 0.3 µM, first compound 10 µM
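Also: spheroids exposed to agents for seven days before readout.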

IC50 (second compound 0.000949 µM): < 0.00316 µM
IC50 (second compound 0.003 µM): < 0.00316 µM
IC50 (second compound 0.00949 µM): < 0.00316 µM
IC50 (second compound 0.03 µM): < 0.00316 µM
IC50 (second compound 0.0949 µM): < 0.00316 µM
IC50 (second compound 0.3 µM): < 0.00316 µM
SMILES: CCN1CCN(Cc2ccc(Nc3ncc(F)c(-c4cc(F)c5nc(C)n(C(C)C)c5c4)n3)nc2)CC1 + CCn1c(-c2cccnc2C(C)OC)c2c3cc(ccc31)N1CCOC(CC(NC(=O)C(C(C)C)N(C)C(=O)C3(F)CCN(C(=O)C#CC(C)(C)N(C)C)CC3)C(=O)N3CCCC(N3)C(=O)OCC(C)(C)C2)C1
viability, T/C (second compound 0.000949 µM, first compound 0.00316 µM): 39.1%
viability, T/C (second compound 0.000949 µM, first compound 0.01 µM): 31.2%
viability, T/C [1]: 20%
viability, T/C [2]: 30.3%
viability, T/C [3]: 31.1%
viability, T/C [4]: 20.5%
viability, T/C (second compound 0.003 µM, first compound 0.00316 µM): 12.1%
viability, T/C (second compound 0.003 µM, first compound 0.01 µM): 13.1%
viability, T/C [5]: 12.2%
viability, T/C [6]: 13.9%
viability, T/C [7]: 16.7%
viability, T/C [8]: 14.6%
viability, T/C (second compound 0.00949 µM, first compound 0.00316 µM): 11.7%
viability, T/C (second compound 0.00949 µM, first compound 0.01 µM): 12.4%
viability, T/C [9]: 10.6%
viability, T/C [10]: 11.8%
viability, T/C [11]: 14.3%
viability, T/C [12]: 19.3%
viability, T/C (second compound 0.03 µM, first compound 0.00316 µM): 14%
viability, T/C (second compound 0.03 µM, first compound 0.01 µM): 11.8%
viability, T/C [13]: 11.1%
viability, T/C [14]: 14%
viability, T/C [15]: 14.5%
viability, T/C [16]: 13.9%
viability, T/C (second compound 0.0949 µM, first compound 0.00316 µM): 12.4%
viability, T/C (second compound 0.0949 µM, first compound 0.01 µM): 14.8%
viability, T/C [17]: 15.8%
viability, T/C [18]: 14.8%
viability, T/C [19]: 14.4%
viability, T/C [20]: 13.8%
viability, T/C (second compound 0.3 µM, first compound 0.00316 µM): 13.6%
viability, T/C (second compound 0.3 µM, first compound 0.01 µM): 12%
viability, T/C [21]: 11.1%
viability, T/C [22]: 10.8%
viability, T/C [23]: 9.64%
viability, T/C [24]: 11.7%

IC50 (second compound 0.000949 µM): < 0.0316 µM
IC50 (second compound 0.003 µM): < 0.0316 µM
IC50 (second compound 0.00949 µM): < 0.0316 µM
IC50 (second compound 0.03 µM): < 0.0316 µM
IC50 (second compound 0.0949 µM): < 0.0316 µM
IC50 (second compound 0.3 µM): < 0.0316 µM
SMILES: C[C@@H](NC(=O)c1ncnc(N)c1Cl)c1ncc(C(=O)Nc2cc(C(F)(F)F)c(Cl)cn2)s1 + CCn1c(-c2cccnc2C(C)OC)c2c3cc(ccc31)N1CCOC(CC(NC(=O)C(C(C)C)N(C)C(=O)C3(F)CCN(C(=O)C#CC(C)(C)N(C)C)CC3)C(=O)N3CCCC(N3)C(=O)OCC(C)(C)C2)C1
viability, T/C [1]: 44.6%
viability, T/C [2]: 55.7%
viability, T/C [3]: 35.6%
viability, T/C [4]: 56.4%
viability, T/C [25]: 45.2%
viability, T/C [26]: 21.5%
viability, T/C [5]: 18.7%
viability, T/C [6]: 15.2%
viability, T/C [7]: 16.7%
viability, T/C [8]: 16.3%
viability, T/C [27]: 16.3%
viability, T/C [28]: 12.6%
viability, T/C [9]: 14.2%
viability, T/C [10]: 14%
viability, T/C [11]: 13.8%
viability, T/C [12]: 14.1%
viability, T/C [29]: 12.6%
viability, T/C [30]: 13.3%
viability, T/C [13]: 14.6%
viability, T/C [14]: 14.2%
viability, T/C [15]: 17%
viability, T/C [16]: 16.4%
viability, T/C [31]: 13.6%
viability, T/C [32]: 12.3%
viability, T/C [17]: 12.1%
viability, T/C [18]: 14.3%
viability, T/C [19]: 12.7%
viability, T/C [20]: 14.5%
viability, T/C [33]: 13.6%
viability, T/C [34]: 13.8%
viability, T/C [21]: 12%
viability, T/C [22]: 13.5%
viability, T/C [23]: 14.9%
viability, T/C [24]: 15.3%
viability, T/C [35]: 13.8%
viability, T/C [36]: 13.1%

IC50 (second compound 0.000949 µM): < 0.0316 µM
IC50 (second compound 0.003 µM): < 0.0316 µM
IC50 (second compound 0.00949 µM): < 0.0316 µM
IC50 (second compound 0.03 µM): < 0.0316 µM
IC50 (second compound 0.0949 µM): < 0.0316 µM
IC50 (second compound 0.3 µM): < 0.0316 µM
SMILES: Cc1nc(N2CCC3(CC2)COC(C)C3N)c(CO)nc1Sc1ccnc(N)c1Cl (stereo unspecified) + CCn1c(-c2cccnc2C(C)OC)c2c3cc(ccc31)N1CCOC(CC(NC(=O)C(C(C)C)N(C)C(=O)C3(F)CCN(C(=O)C#CC(C)(C)N(C)C)CC3)C(=O)N3CCCC(N3)C(=O)OCC(C)(C)C2)C1
viability, T/C [1]: 29.3%
viability, T/C [2]: 16.5%
viability, T/C [3]: 7.93%
viability, T/C [4]: 9.19%
viability, T/C [25]: 6.66%
viability, T/C [26]: 4.12%
viability, T/C [5]: 8.24%
viability, T/C [6]: 6.74%
viability, T/C [7]: 5.5%
viability, T/C [8]: 7.84%
viability, T/C [27]: 3.89%
viability, T/C [28]: 3.06%
viability, T/C [9]: 7.59%
viability, T/C [10]: 5.87%
viability, T/C [11]: 5.22%
viability, T/C [12]: 4.38%
viability, T/C [29]: 3.17%
viability, T/C [30]: 3.06%
viability, T/C [13]: 10.5%
viability, T/C [14]: 6.71%
viability, T/C [15]: 5.16%
viability, T/C [16]: 4.22%
viability, T/C [31]: 3.35%
viability, T/C [32]: 3.62%
viability, T/C [17]: 9.27%
viability, T/C [18]: 6.46%
viability, T/C [19]: 4.18%
viability, T/C [20]: 4.43%
viability, T/C [33]: 3.06%
viability, T/C [34]: 2.77%
viability, T/C [21]: 8.31%
viability, T/C [22]: 6.71%
viability, T/C [23]: 5.12%
viability, T/C [24]: 4.01%
viability, T/C [35]: 3.5%
viability, T/C [36]: 2.86%
